Data reported in patent publication US20210187130A1, “PET RADIOPHARMACEUTICALS FOR NON-INVASIVE EVALUATION OF HIF-2alpha” (THE BOARD OF REGENTS OF THE UNIVERSITY OF TEXAS SYSTEM, priority 2019, published 2021).
“Also recorded” adds a separate entry of the source.

What was measured:
[1] = Tolerance (body weight) of tumorgraft-bearing mice; assay type: in vivo; details: sunitinib at doses reproducing patient exposures
Protocol: (§1) This compound was evaluated in over 250 mice implanted with RCCs from 22 patients. […] This was also observed clinically.

ccRCC TGs = assay: PT2399 in RCC tumorgraft (patient-derived xenograft) platform; assay type: in vivo, mice
Protocol: as §1
Tumor samples collected fresh from kidney cancer surgeries were implanted orthotopically (in the kidney) of immunocompromised mice (NOD/SCID) within 3 hours. The samples were implanted without disaggregation or any additives, and it was previously shown that these tumorgrafts retained the histology, gene expression, DNA copy number alterations, mutations, and treatment responsiveness of the patient tumors. This platform of human RCC tumorgraft models was used to validate HIF-2α as a target in ccRCC (FIGS. 1 and 2). […] This same platform was used to evaluate the uptake of [^11C]PT2385 by ccRCC tumorgrafts expressing HIF-2α by PET imaging.

ccRCC = assay: Phase 1 clinical trial in patients with ccRCC; assay type: in vivo
Text: The drug was remarkably well tolerated and a maximal tolerated dose (MTD) was not reached. […] The drug was also highly specific, and high-grade adverse effects were on-target, and expected, such as anemia (HIF-2 is known to regulate erythropoietin, and the effect could be overcome by exogenous erythropoietin administration). While the patient cohort evaluated had been extensively pretreated (typically ≥4 prior lines), activity of the inhibitor was still observed. Among 51 patients treated in the study at various dose levels, there was 1 complete response (CR), 6 partial response (PR), and 13 patients who remained on the study without progression beyond a year (FIG. 5). Overall, 42% of patients remained without progression for at least 4 months. […] Those data illustrated that even in highly pretreated RCC patients the HIF-2 Inhibitor was able to remain active.
The Phase I trial was accompanied by a companion study involving imaging and tissue acquisition.

[2] = among 51 patients, various dose levels

## N#Cc1cc(F)cc(Oc2ccc(S(=O)(=O)C(F)F)c3c2CC(F)(F)[C@H]3O)c1 [PT2399]
[1]
  body weight change of treated mice: did not
ccRCC TGs; RCCs from 22 patients, over 250 mice
  ccRCC tumorgrafts responsive (sensitive lines): approximately 50%
ccRCC TGs; of all 22 tumorgraft lines
  number of intermediate tumorgraft lines: 5
  number of resistant tumorgraft lines: 7
  number of sensitive tumorgraft lines: 10
ccRCC TGs; tumorgraft growth, sunitinib standard of care at the time
  activity compared with sunitinib: more active than Sunitinib; also recorded: more effective than sunitinib

## CS(=O)(=O)c1ccc(Oc2cc(F)cc(C#N)c2)c2c1[C@H](O)C(F)(F)C2 [PT2385]
ccRCC; [2]
  complete response (CR), number of patients: 1
  partial response (PR), number of patients: 6
  patients remaining on study without progression beyond a year: 13
ccRCC; any patient
  serious adverse effects requiring treatment discontinuation: no serious adverse effects requiring treatment discontinuation
ccRCC; dose escalation and dose expansion cohorts
  maximal tolerated dose (MTD): not reached
ccRCC; human, in vivo
  dose-limiting toxicities: no dose-limiting toxicities
  high-grade adverse effects (on-target): anemia
ccRCC; overall
  patients without progression for at least 4 months: 42%
ccRCC; preliminary studies of patient tumor samples
  activity in HIF-2α deficient tumors: no activity

## CCN(CC)CCNC(=O)c1c(C)[nH]c(/C=C2\C(=O)Nc3ccc(F)cc32)c1C [sunitinib]
[1]
  body weight change of treated mice: lost weight
